≈ marks a conversion by molar mass, not a printed value. Values belong to the compound of their own block, whether it stands above or below them.
What was measured:
[1] = tested on: K562/adr (drug-resistant, chronic myeloid leukemia, CML); experiment: Leukemia cell growth inhibition, MTT, 72 h (Example 5); format: cell-based, human; settings: 72 h, MTT; for IC50 / IC90: Homo sapiens, K562/Adr
From the text: (§1) Leukemia cell lines: leukemia cell lines: K562/adr (drug-resistant, chronic myeloid leukemia, CML), NB4 (acute promyelocytic leukemia, AML), Kasumi-1 (acute myeloid leukemia M2 type, AML-M2), Jurkat (acute lymphoblastic leukemia, ALL), all of which are donated by Cancer Research Institute of Zhejiang University, China; and H9 (acute lymphoblastic leukemia, ALL), which is purchased from China Center for Type Culture Collection.
(§2) Reagents: The standard sample of tetrandrine (TTD) is purchased from Ci Yuan Biotechnology Co., Ltd., Shaanxi, China; and the 5-substituted tetrandrine derivatives of the present invention.
(§3) Obtaining 6000 well-growing leukemia cells and inoculating them into wells of a 96-well cell culture plate. The culture medium is a 1640 cell culture medium containing 10% fetal bovine serum. After adding the tetrandrine derivatives of different concentrations and mixing uniformly, placing the plate in a carbon dioxide cell incubator (5% CO2) at 37° C. and incubating for 72 hours. Then the viable cell concentration is determined by the MTT method.

[2] = tested on: H9 (acute lymphoblastic leukemia, ALL); experiment: as above; format: cell-based, human; settings: 72 h, MTT; for IC50 / IC90: Homo sapiens
From the text: as §1, §2, §3

[3] = tested on: Kasumi-1 (acute myeloid leukemia M2 type, AML-M2); experiment: as above; format: cell-based, human; settings: for IC50 / IC90: Homo sapiens, Kasumi 1
From the text: as §1, §2, §3

[4] = tested on: Jurkat (acute lymphoblastic leukemia, ALL); experiment: as above; format: cell-based, human; settings: 72 h, MTT; for IC50 / IC90: Homo sapiens, Jurkat
From the text: as §1, §2, §3

PC-3 (prostate cancer) = experiment: Solid tumor cell growth inhibition, MTT, 72 h (Example 7); format: cell-based, human; settings: 72 h, MTT, PC-3
Procedure: (§4) Human solid tumor cell lines: Hep-2 (laryngeal carcinoma), A549 (human lung cancer), CaES-17 (esophageal cancer cell), PC-3 (prostate cancer), CNE (nasopharyngeal carcinoma cell) and SK-OV-3 (ovarian cancer cell), all of which are purchased from China Center For Type Culture Collection; RKO (human colon adenocarcinoma cell), MGC 803 (human gastric cancer cell), MG63 (osteosarcoma), and U87 MG (malignant glioma cell), all of which are purchased from Fuxiang Bio-tech Co. Ltd., Shanghai, China; PANC-1 (pancreatic cancer), Huh? (human liver cancer cell), Becap37 (human breast cancer cell), and Hela (human cervical cancer cell), all of which are donated by Cancer Research Institute of Zhejiang University, China.
(§5) Reagents: the same as in Example 5.
(§6) Obtaining 4000 well-growing human solid tumor cells and inoculating them into wells of a 96-well cell culture plate. The culture medium is DMEM High Glucose cell culture medium containing 10% fetal bovine serum. The plate is placed in a carbon dioxide cell incubator (5% CO2) at 37° C. and incubated for 24 hours. After been added with tetrandrine derivatives of different concentration and mixing uniformly, the plate is placed in a carbon dioxide cell incubator (5% CO2) at 37° C. and incubated for 72 hours. Then the viable cell concentration is determined by the MTT method and the cell viability (%) after drug treatment is calculated. In this experiment, the cell viability of control group (not treated with any compound) is set as 100%.

[5] = tested on: PANC-1 (pancreatic cancer); experiment: as above; format: cell-based, human; settings: 72 h, MTT, PANC-1; for IC50 / IC90: Homo sapiens
Procedure: as §4, §5, §6

[6] = tested on: CaES-17 (esophageal cancer cell); experiment: as above; format: cell-based, human; settings: 72 h, MTT, CAES-17; for IC50 / IC90: Homo sapiens, CaEs17
Procedure: as §4, §5, §6

MG63 (osteosarcoma) = experiment: as above; format: cell-based, human; settings: 72 h, MTT, MG-63; for IC50 / IC90: Homo sapiens
Procedure: as §4, §5, §6

[7] = tested on: RPMI8226 (multiple myeloma); experiment: Multiple myeloma cell growth inhibition, MTT, 72 h (Example 6); format: cell-based, human; settings: 72 h, MTT, RPMI8226; for IC50 / IC90: Homo sapiens, RPMI-8226
Procedure: Multiple myeloma and lymphoma cell lines: RPMI8226 (multiple myeloma), purchased from Fuxiang Bio-tech Co. Ltd., Shanghai, China.
as §5
as §3, with “incubated” for “incubating”

[8] = tested on: Becap37 (human breast cancer cell); experiment: Solid tumor cell growth inhibition, MTT, 72 h (Example 7); format: cell-based; settings: 72 h, MTT, Becap-37; for IC50 / IC90: Homo sapiens
Procedure: as §4, §5, §6

[9] = tested on: Huh7 (human liver cancer cell); experiment: as above; format: cell-based; settings: 72 h, MTT, Huh-7; for IC50 / IC90: Homo sapiens
Procedure: as §4, §5, §6

A549 (human lung cancer) = experiment: as above; format: cell-based; settings: 72 h, MTT, A549; for IC50 / IC90: Homo sapiens
Procedure: as §4, §5, §6

[10] = tested on: MGC 803 (human gastric cancer cell); experiment: as above; format: cell-based; settings: for IC50 / IC90: Homo sapiens
Procedure: as §4, §5, §6

K562/ADR IC50 [1]: 3.70 µg/mL
K562/ADR IC90 [1]: 11.11 µg/mL
H9 IC50 [2]: >16 µg/mL
H9 IC90 [2]: >16 µg/mL
Kasumi-1 IC50 [3]: 7.74 µg/mL
Kasumi-1 IC90 [3]: >16 µg/mL
Jurkat IC50 [4]: >16 µg/mL
Jurkat IC90 [4]: >16 µg/mL
PC-3 IC50 (PC-3 (prostate cancer)): >10 µg/mL
PC-3 IC90 (PC-3 (prostate cancer)): >10 µg/mL
PANC-1 IC50 [5]: >10 µg/mL
PANC-1 IC90 [5]: >10 µg/mL
CAES-17 IC50 [6]: 9.89 µg/mL
CAES-17 IC90 [6]: 30.16 µg/mL
MG-63 IC50 (MG63 (osteosarcoma)): 9.93 µg/mL
MG-63 IC90 (MG63 (osteosarcoma)): 26.11 µg/mL
RPMI8226 IC50 [7]: 1.95 µg/mL
RPMI8226 IC90 [7]: 8 µg/mL
Becap-37 IC50 [8]: 9.95 µg/mL
Becap-37 IC90 [8]: >10 µg/mL
Huh-7 IC50 [9]: 8.54 µg/mL
Huh-7 IC90 [9]: 15.09 µg/mL
A549 IC50 (A549 (human lung cancer)): >16 µg/mL
A549 IC90 (A549 (human lung cancer)): >16 µg/mL
MGC-803 IC50 [10]: 18.95 µg/mL
MGC-803 IC90 [10]: 64.43 µg/mL
SMILES: COc1ccc2cc1Oc1ccc(cc1)C[C@H]1c3cc(c(OC)cc3CCN1C)Oc1c(OC)c(OC)c(CO)c3c1[C@H](C2)N(C)CC3 [BS-TE-213]

IC50 [1]: 0.67 µg/mL (≈ 0.885 µM)
IC90 [1]: 4.65 µg/mL (≈ 6.14 µM)
IC50 [2]: 2.99 µg/mL (≈ 3.95 µM)
IC90 [2]: 4.75 µg/mL (≈ 6.28 µM)
IC50 [3]: 3.19 µg/mL (≈ 4.21 µM)
IC90 [3]: 7.36 µg/mL (≈ 9.72 µM)
IC50 [4]: 3.39 µg/mL (≈ 4.48 µM)
IC90 [4]: 7.65 µg/mL (≈ 10.1 µM)
IC50 (PC-3 (prostate cancer); Homo sapiens): 6.38 µg/mL (≈ 8.43 µM)
IC90 (PC-3 (prostate cancer); Homo sapiens): 9 µg/mL (≈ 11.9 µM)
IC50 [5]: 5.68 µg/mL (≈ 7.5 µM)
IC90 [5]: 8.76 µg/mL (≈ 11.6 µM)
IC50 [6]: 2.4 µg/mL (≈ 3.17 µM)
IC90 [6]: 7.23 µg/mL (≈ 9.55 µM)
IC50 (MG63 (osteosarcoma)): 2.76 µg/mL (≈ 3.65 µM)
IC90 (MG63 (osteosarcoma)): 4.51 µg/mL (≈ 5.96 µM)
IC50 [7]: 0.27 µg/mL (≈ 0.357 µM)
IC90 [7]: 1.44 µg/mL (≈ 1.9 µM)
IC50 [8]: 2.85 µg/mL (≈ 3.77 µM)
IC90 [8]: 4.18 µg/mL (≈ 5.52 µM)
IC50 [9]: 2.4 µg/mL (≈ 3.17 µM)
IC90 [9]: 3.93 µg/mL (≈ 5.19 µM)
IC50 (A549 (human lung cancer)): > 16 µg/mL
IC90 (A549 (human lung cancer)): > 16 µg/mL
IC50 [10]: 2.45 µg/mL (≈ 3.24 µM)
IC90 [10]: 3.72 µg/mL (≈ 4.91 µM)
SMILES: COc1ccc2cc1Oc1ccc(cc1)C[C@H]1c3cc(c(OC)cc3CCN1C)Oc1c(OC)c(OC)c(COC(=O)c3ccccc3)c3c1[C@H](C2)N(C)CC3 [BS-TE-224]

IC50 [1]: 0.84 µg/mL (≈ 1.14 µM)
IC90 [1]: 3.36 µg/mL (≈ 4.57 µM)
IC50 [2]: 1.98 µg/mL (≈ 2.69 µM)
IC90 [2]: 3.36 µg/mL (≈ 4.57 µM)
IC50 [3]: 0.78 µg/mL (≈ 1.06 µM)
IC90 [3]: 3.65 µg/mL (≈ 4.97 µM)
IC50 [4]: 2 µg/mL (≈ 2.72 µM)
IC90 [4]: 6.19 µg/mL (≈ 8.42 µM)
IC50 [5]: 3.52 µg/mL (≈ 4.79 µM)
IC90 [5]: 9.25 µg/mL (≈ 12.6 µM)
IC50 [6]: 2.11 µg/mL (≈ 2.87 µM)
IC90 [6]: 12.2 µg/mL (≈ 16.6 µM)
IC50 (MG63 (osteosarcoma)): 1.1 µg/mL (≈ 1.5 µM)
IC90 (MG63 (osteosarcoma)): 2.18 µg/mL (≈ 2.97 µM)
IC50 [7]: 0.06 µg/mL (≈ 0.0816 µM)
IC90 [7]: 2 µg/mL (≈ 2.72 µM)
IC50 [8]: 1.6 µg/mL (≈ 2.18 µM)
IC90 [8]: 2.17 µg/mL (≈ 2.95 µM)
IC50 [9]: 2 µg/mL (≈ 2.72 µM)
IC90 [9]: 3.92 µg/mL (≈ 5.33 µM)
IC50 (A549 (human lung cancer)): 2.98 µg/mL (≈ 4.05 µM)
IC90 (A549 (human lung cancer)): 7.85 µg/mL (≈ 10.7 µM)
IC50 [10]: 1.72 µg/mL (≈ 2.34 µM)
IC90 [10]: 2.76 µg/mL (≈ 3.76 µM)
SMILES: COc1ccc2cc1Oc1ccc(cc1)C[C@H]1c3cc(c(OC)cc3CCN1C)Oc1c(OC)c(OC)c(CNc3nccs3)c3c1[C@H](C2)N(C)CC3 [BS-TE-320]

IC50 [1]: 1.8 µg/mL (≈ 2.65 µM)
IC90 [1]: 16 µg/mL (≈ 23.5 µM)
IC50 [2]: 6.87 µg/mL (≈ 10.1 µM)
IC90 [2]: 22.1 µg/mL (≈ 32.5 µM)
IC50 [3]: 5.64 µg/mL (≈ 8.3 µM)
IC90 [3]: 16 µg/mL (≈ 23.5 µM)
IC50 [4]: 9.14 µg/mL (≈ 13.4 µM)
IC90 [4]: > 16 µg/mL
IC50 [5]: > 10 µg/mL
IC90 [5]: > 10 µg/mL
IC50 [6]: 4.8 µg/mL (≈ 7.06 µM)
IC90 [6]: 25.8 µg/mL (≈ 37.9 µM)
IC50 (MG63 (osteosarcoma)): 3.16 µg/mL (≈ 4.65 µM)
IC90 (MG63 (osteosarcoma)): 9.8 µg/mL (≈ 14.4 µM)
IC50 [7]: 0.35 µg/mL (≈ 0.515 µM)
IC90 [7]: 3.31 µg/mL (≈ 4.87 µM)
IC50 [8]: 9.8 µg/mL (≈ 14.4 µM)
IC90 [8]: > 10 µg/mL
IC50 [9]: 4.71 µg/mL (≈ 6.93 µM)
IC90 [9]: 7.88 µg/mL (≈ 11.6 µM)
IC50 (A549 (human lung cancer)): > 16 µg/mL
IC90 (A549 (human lung cancer)): > 16 µg/mL
IC50 [10]: 9.67 µg/mL (≈ 14.2 µM)
IC90 [10]: 15.1 µg/mL (≈ 22.2 µM)
SMILES: COc1ccc2cc1Oc1ccc(cc1)C[C@H]1c3cc(c(OC)cc3CCN1C)Oc1c(OC)c(OC)c(CN(C)C)c3c1[C@H](C2)N(C)CC3 [BS-TE-341]
